In ChEMBL document CHEMBL1133919, “Identification of selective inhibitors of cyclin dependent kinase 4” (Bioorg Med Chem Lett, 2001):

What was measured:
[1] = target: T1, Cyclin-dependent kinase 4/cyclin D1 (Homo sapiens, UniProt P11802); experiment: Inhibitory activity against Cyclin dependent kinase CDK4/D1; type: protein-complex assay
HCT-116 = experiment: Inhibition of colon carcinoma cell line HCT116 proliferation; type: functional, cell-based; conditions: Homo sapiens
SKUT-1A = experiment: Inhibition of Rb negative Skut 1A cell proliferation; type: functional, cell-based; conditions: Homo sapiens
Skut1B = experiment: Inhibition of Rb positive Skut 1B cell proliferation; type: functional, cell-based; conditions: Homo sapiens
[2] = target: Cyclin-dependent kinase 1/cyclin B (Homo sapiens, UniProt P06493); experiment: Inhibition of CDK1/cyclin B; type: protein-complex assay
[3] = target: Cyclin-dependent kinase 2/cyclin E (Homo sapiens, UniProt P24941); experiment: Inhibition of CDK2/cyclin E; type: protein-complex assay
[4] = target: T1, Cyclin-dependent kinase 4/cyclin D1; experiment: Inhibition of Cyclin dependent kinase CDK4/cyclin D1; type: protein-complex assay
[5] = target: Cyclin-dependent kinase 1 (Homo sapiens) (UniProt P06493); experiment: Inhibition of Cyclin dependent kinase CDK1/B
Chain of Cyclin-dependent kinase 1 (Homo sapiens) (P06493 whole entry, looked up): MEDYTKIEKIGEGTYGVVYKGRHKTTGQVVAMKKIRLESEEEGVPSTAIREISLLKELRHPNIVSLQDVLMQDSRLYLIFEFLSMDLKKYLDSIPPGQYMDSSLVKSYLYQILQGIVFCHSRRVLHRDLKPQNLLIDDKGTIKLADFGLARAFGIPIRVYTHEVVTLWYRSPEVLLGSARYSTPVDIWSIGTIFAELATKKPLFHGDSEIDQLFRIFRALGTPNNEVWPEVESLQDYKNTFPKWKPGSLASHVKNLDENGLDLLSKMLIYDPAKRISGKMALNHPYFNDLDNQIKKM

T1 sequence (P11802 whole entry): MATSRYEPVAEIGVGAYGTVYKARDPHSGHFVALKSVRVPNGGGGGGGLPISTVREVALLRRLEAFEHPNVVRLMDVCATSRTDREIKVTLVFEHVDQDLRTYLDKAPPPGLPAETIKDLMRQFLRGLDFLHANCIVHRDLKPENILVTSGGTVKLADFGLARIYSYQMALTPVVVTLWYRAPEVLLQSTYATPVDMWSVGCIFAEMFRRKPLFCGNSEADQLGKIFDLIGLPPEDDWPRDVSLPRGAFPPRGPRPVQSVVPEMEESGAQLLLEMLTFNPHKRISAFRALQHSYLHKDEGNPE
T1 sequence (P24385 whole entry, further chain): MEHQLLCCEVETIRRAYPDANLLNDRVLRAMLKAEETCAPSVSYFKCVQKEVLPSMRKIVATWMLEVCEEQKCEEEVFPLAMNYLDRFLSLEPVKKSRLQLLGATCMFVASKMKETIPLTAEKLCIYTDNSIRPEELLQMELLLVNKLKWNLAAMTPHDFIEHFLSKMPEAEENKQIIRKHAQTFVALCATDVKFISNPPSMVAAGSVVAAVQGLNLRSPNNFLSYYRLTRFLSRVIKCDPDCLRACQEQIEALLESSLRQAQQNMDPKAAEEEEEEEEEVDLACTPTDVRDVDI

| Compound | IC50 [1] [µM] | further results |
| --- | --- | --- |
| c1ccc2c(c1)[nH]c1ccc3ccncc3c12 | 159 | – |
| Oc1ccc2ccc3[nH]c4ccc(-c5ccccc5)cc4c3c2c1 | 37.5 | – |
| c1ccc2c(c1)[nH]c1ccc3cnccc3c12 | 30 | – |
| [O-][n+]1ccc2c(ccc3[nH]c4ccccc4c32)c1 | 59 | – |
| Oc1ccc2ccc3[nH]c4c(-c5ccc(Cl)cc5)cccc4c3c2c1 | 9.9 | IC50 (HCT-116): 51 µM; IC50 (SKUT-1A): 36 µM; IC50 (Skut1B): 10.2 µM |
| Oc1ccc2ccc3[nH]c4cc(-c5ccccc5)ccc4c3c2c1 | 22 | – |
| Oc1ccc2ccc3[nH]c4c(-c5ccccc5)cccc4c3c2c1 | – | IC50 [2]: 95 µM; IC50 [3]: 97 µM; IC50 [4]: 3.6 µM; IC50 (HCT-116): 10.2 µM; IC50 (SKUT-1A): 10.7 µM; IC50 (Skut1B): 2.8 µM |
| c1ccc2c(c1)[nH]c1ccc3ncccc3c12 | 197 | – |
| Oc1ccc(-c2cccc3c2[nH]c2ccc4ccc(O)cc4c23)cc1 | 1.9 | IC50 (HCT-116): 2.2 µM; IC50 (SKUT-1A): 5.6 µM; IC50 (Skut1B): 2.3 µM |
| Nc1cccc(-c2cccc3c2[nH]c2ccc4ccc(O)cc4c23)c1 | 2.3 | IC50 (HCT-116): 9.6 µM; IC50 (SKUT-1A): 11.6 µM; IC50 (Skut1B): 4.1 µM; IC50 [5]: 74.5 µM |
| c1cnc2c(c1)ccc1[nH]c3ccccc3c12 | 442 | – |
| [O-][n+]1ccc2ccc3[nH]c4ccccc4c3c2c1 | 605 | – |
| Oc1ccc2ccc3[nH]c4ccccc4c3c2c1 | 17.4 | – |

More lines, main results first:

| IC50 [1] [µM] | Compound | further results |
| --- | --- | --- |
| > 341 | c1ccc(-c2cccc3c2[nH]c2ccc4ccccc4c23)cc1 | – |
| 29 | Oc1ccc2c(ccc3[nH]c4c(-c5ccccc5)cccc4c32)c1 | – |
| 83 | Oc1ccc2ccc3[nH]c4cccc(-c5ccccc5)c4c3c2c1 | – |
| 19.5 | Oc1cccc2ccc3[nH]c4c(-c5ccccc5)cccc4c3c12 | – |
| > 309 | COc1ccc2ccc3[nH]c4c(-c5ccccc5)cccc4c3c2c1 | – |
| 27.3 | Nc1ccc2ccc3[nH]c4c(-c5ccccc5)cccc4c3c2c1 | – |
| 5.8 | Oc1cccc2c1ccc1[nH]c3c(-c4ccccc4)cccc3c12 | – |
